# Test results published in US20250042900A1 (priority 2022, published 2025).
# Structures can show the parent of a compound that is named as a salt.
# Key:
# [1] = biological target: 5-Hydroxytryptamine (Serotonin) Receptor 2B (5-HT2B) (Homo sapiens, UniProt P41595); test: Calcium flux secondary messenger assay, agonist format; assay type: cell-based; conditions: read-out: EC50 (μM) Agonist/Opener
# [2] = biological target: T1, Adrenergic Receptor α1A (ADRA1A) (Homo sapiens, UniProt P35348); test: as above; assay type: cell-based; conditions: read-out: EC50 (μM) Agonist/Opener
# [3] = biological target: T2, Endothelin Receptor Type A (EDNRA) (Homo sapiens, UniProt P25101); test: as above; assay type: cell-based; conditions: read-out: EC50 (μM) Agonist/Opener
# [4] = biological target: T3, 5-Hydroxytryptamine (Serotonin) Receptor 3A (5-HT3A) (Homo sapiens, UniProt P46098); test: Ion channel assay, opener format; assay type: cell-based; conditions: read-out: EC50 (μM) Agonist/Opener
# T3 construct: expressed in transfected cells
# [5] = biological target: Arginine Vasopressin Receptor 1A (AVPR1A) (Homo sapiens, UniProt P37288); test: Calcium flux secondary messenger assay, antagonist format; assay type: cell-based; conditions: read-out: IC50 (μM) Antag./Blocker/Inhibitor
# [6] = biological target: T4, Insulin Receptor (tyrosine kinase) (INSR) (Homo sapiens, UniProt P06213); test: Kinase binding assay (KINOMEscan); conditions: inhibitor, read-out: IC50 (μM) Antag./Blocker/Inhibitor
# T4 construct: T7 phage fusion (most assays) or DNA tag for qPCR (the remaining kinases); made in house; host or cells: E. coli (BL21-derived, T7 phage display) or HEK-293
# [7] = biological target: T5, 5-Hydroxytryptamine (Serotonin) Receptor 1B (5-HT1B) (Homo sapiens, UniProt P28222); test: cAMP secondary messenger assay, antagonist format; assay type: cell-based; conditions: read-out: IC50 (μM) Antag./Blocker/Inhibitor
# T5 construct: host or cells: cAMP Hunter cell line
# dopamine transporter = dopamine transporter (Homo sapiens, UniProt Q01959); test: Monoamine transporter uptake assay (Neurotransmitter Transporter Uptake Assay Kit), blocker format
# [8] = biological target: T6, Opioid Receptor Delta 1 (OPRD1) (Homo sapiens, UniProt P41143); test: cAMP secondary messenger assay, antagonist format; assay type: cell-based; conditions: read-out: IC50 (μM) Antag./Blocker/Inhibitor
# PDE4D2 = biological target: T7, PDE4D2 (Homo sapiens, UniProt Q08499); test: Enzymatic assay PDE4D2; assay type: biochemical; conditions: inhibitor, read-out: IC50 (μM) Antag./Blocker/Inhibitor
# T7 construct: purchased Signal Chem
# [9] = biological target: T8, 5-Hydroxytryptamine (Serotonin) Receptor 1A (5-HT1A) (Homo sapiens, UniProt P08908); test: cAMP secondary messenger assay, antagonist format; assay type: cell-based; conditions: read-out: IC50 (μM) Antag./Blocker/Inhibitor
# T8 construct: host or cells: cAMP Hunter cell line
# [10] = system: Gamma-aminobutyric acid Receptor A (GABAA); test: Ion channel assay, blocker format; assay type: cell-based; conditions: read-out: IC50 (μM) Antag./Blocker/Inhibitor
# [11] = biological target: CAV1.2 (Voltage-gated L-type calcium channel) (Homo sapiens, UniProt Q13936); test: Ion channel assay, blocker format; assay type: cell-based; conditions: read-out: IC50 (μM) Antag./Blocker/Inhibitor
# [12] = biological target: Cannabinoid Receptor 1 (CNR1) (Homo sapiens, UniProt P21554); test: cAMP secondary messenger assay, agonist format; assay type: cell-based; conditions: read-out: EC50 (μM) Agonist/Opener
# [13] = biological target: T1, Adrenergic Receptor α1A (ADRA1A); test: Calcium flux secondary messenger assay, antagonist format; assay type: cell-based; conditions: read-out: IC50 (μM) Antag./Blocker/Inhibitor
# KvLQT1/minK = KvLQT1/minK (Homo sapiens, UniProt P51787); test: Ion channel assay, blocker format; assay type: cell-based; conditions: read-out: IC50 (μM) Antag./Blocker/Inhibitor
# [14] = biological target: T6, Opioid Receptor Delta 1 (OPRD1); test: cAMP secondary messenger assay, agonist format; assay type: cell-based; conditions: read-out: EC50 (μM) Agonist/Opener
# AChE = biological target: T9, AChE (Homo sapiens, UniProt P22303); test: Enzymatic assay AChE; assay type: biochemical; conditions: inhibitor, read-out: IC50 (μM) Antag./Blocker/Inhibitor
# T9 construct: purchased R&D Systems
# [15] = biological target: Dopamine Receptor D1 (DRD1) (Homo sapiens, UniProt P21728); test: cAMP secondary messenger assay, agonist format; assay type: cell-based; conditions: read-out: EC50 (μM) Agonist/Opener
# [16] = biological target: norepinephrine transporter (Homo sapiens, UniProt P23975); test: Monoamine transporter uptake assay (Neurotransmitter Transporter Uptake Assay Kit), blocker format
# [17] = biological target: T10, Histamine Receptor H1 (HRH1) (Homo sapiens, UniProt P35367); test: cell-based; conditions: Calcium Flux, antagonist, read-out: IC50 (μM) Antag./Blocker/Inhibitor
# [18] = biological target: Muscarinic acetylcholine Receptor M3 (CHRM3) (Homo sapiens, UniProt P20309); test: Calcium flux secondary messenger assay, agonist format; assay type: cell-based; conditions: read-out: EC50 (μM) Agonist/Opener
# [19] = biological target: T11, Muscarinic acetylcholine Receptor M2 (CHRM2) (Homo sapiens, UniProt P08172); test: cAMP secondary messenger assay, agonist format; assay type: cell-based; conditions: read-out: EC50 (μM) Agonist/Opener
# [20] = biological target: T11, Muscarinic acetylcholine Receptor M2 (CHRM2); test: cAMP secondary messenger assay, antagonist format; assay type: cell-based; conditions: read-out: IC50 (μM) Antag./Blocker/Inhibitor
# [21] = biological target: Nuclear Hormone Glucocorticoid Receptor (GR) (Homo sapiens, UniProt P04150); test: NHR Protein Interaction assay, agonist format; assay type: cell-based; conditions: read-out: EC50 (μM) Agonist/Opener
# [22] = biological target: Nicotinic acetylcholine Receptor α4 β2 (nAChR(a4/b2)) (Homo sapiens, UniProt P17787+P43681); test: Ion channel assay, blocker format; assay type: cell-based; conditions: read-out: IC50 (μM) Antag./Blocker/Inhibitor
# [23] = biological target: Adrenergic Receptor α2A (ADRA2A) (Homo sapiens, UniProt P08913); test: cAMP secondary messenger assay, agonist format; assay type: cell-based; conditions: read-out: EC50 (μM) Agonist/Opener
# [24] = biological target: T10, Histamine Receptor H1 (HRH1); test: Calcium flux secondary messenger assay, agonist format; assay type: cell-based; conditions: read-out: EC50 (μM) Agonist/Opener
# [25] = biological target: Muscarinic acetylcholine Receptor M1 (CHRM1) (Homo sapiens, UniProt P11229); test: cell-based; conditions: Calcium Flux, antagonist, read-out: IC50 (μM) Antag./Blocker/Inhibitor
# [26] = biological target: T2, Endothelin Receptor Type A (EDNRA); test: Calcium flux secondary messenger assay, antagonist format; assay type: cell-based; conditions: read-out: IC50 (μM) Antag./Blocker/Inhibitor
# [27] = biological target: Histamine Receptor H2 (HRH2) (Homo sapiens, UniProt P25021); test: cAMP secondary messenger assay, agonist format; assay type: cell-based; conditions: read-out: EC50 (μM) Agonist/Opener
# [28] = biological target: Adenosine Receptor A2A (ADORA2A) (Homo sapiens, UniProt P29274); test: Calcium flux secondary messenger assay, antagonist format; assay type: cell-based; conditions: read-out: IC50 (μM) Antag./Blocker/Inhibitor
# T10 sequence (P35367 whole entry): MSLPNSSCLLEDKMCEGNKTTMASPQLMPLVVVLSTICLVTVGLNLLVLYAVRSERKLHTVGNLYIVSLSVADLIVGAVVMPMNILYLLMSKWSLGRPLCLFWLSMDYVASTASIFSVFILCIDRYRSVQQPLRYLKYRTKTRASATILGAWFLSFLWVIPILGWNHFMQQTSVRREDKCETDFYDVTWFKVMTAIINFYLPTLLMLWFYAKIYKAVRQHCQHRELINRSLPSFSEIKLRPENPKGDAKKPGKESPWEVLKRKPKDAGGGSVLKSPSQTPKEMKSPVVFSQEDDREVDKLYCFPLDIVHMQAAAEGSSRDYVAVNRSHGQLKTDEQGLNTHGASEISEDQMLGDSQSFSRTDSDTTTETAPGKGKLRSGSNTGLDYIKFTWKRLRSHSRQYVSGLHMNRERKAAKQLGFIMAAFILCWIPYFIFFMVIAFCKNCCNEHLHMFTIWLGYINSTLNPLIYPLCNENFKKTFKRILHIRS
# T1 sequence (P35348 whole entry): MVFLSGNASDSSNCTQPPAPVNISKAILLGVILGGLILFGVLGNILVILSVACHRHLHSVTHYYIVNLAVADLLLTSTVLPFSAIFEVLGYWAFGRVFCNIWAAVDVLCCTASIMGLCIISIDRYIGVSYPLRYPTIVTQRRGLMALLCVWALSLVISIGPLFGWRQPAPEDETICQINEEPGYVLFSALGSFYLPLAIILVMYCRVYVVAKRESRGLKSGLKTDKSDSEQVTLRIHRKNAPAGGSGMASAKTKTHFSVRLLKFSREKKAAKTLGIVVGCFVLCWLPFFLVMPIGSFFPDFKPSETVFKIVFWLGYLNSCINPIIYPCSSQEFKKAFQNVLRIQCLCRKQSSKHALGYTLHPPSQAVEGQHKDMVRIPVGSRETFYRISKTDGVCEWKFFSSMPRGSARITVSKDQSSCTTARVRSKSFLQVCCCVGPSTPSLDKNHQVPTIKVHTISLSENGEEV
# T6 sequence (P41143 whole entry): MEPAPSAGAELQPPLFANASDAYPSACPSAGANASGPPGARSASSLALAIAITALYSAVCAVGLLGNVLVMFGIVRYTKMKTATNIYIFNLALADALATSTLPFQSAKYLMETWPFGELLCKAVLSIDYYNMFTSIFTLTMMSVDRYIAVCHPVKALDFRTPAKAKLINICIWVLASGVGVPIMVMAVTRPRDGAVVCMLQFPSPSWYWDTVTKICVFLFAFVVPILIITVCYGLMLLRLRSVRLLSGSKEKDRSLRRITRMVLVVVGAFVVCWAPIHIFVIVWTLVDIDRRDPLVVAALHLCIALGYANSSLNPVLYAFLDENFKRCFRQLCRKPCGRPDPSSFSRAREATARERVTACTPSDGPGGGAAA
# T11 sequence (P08172 whole entry): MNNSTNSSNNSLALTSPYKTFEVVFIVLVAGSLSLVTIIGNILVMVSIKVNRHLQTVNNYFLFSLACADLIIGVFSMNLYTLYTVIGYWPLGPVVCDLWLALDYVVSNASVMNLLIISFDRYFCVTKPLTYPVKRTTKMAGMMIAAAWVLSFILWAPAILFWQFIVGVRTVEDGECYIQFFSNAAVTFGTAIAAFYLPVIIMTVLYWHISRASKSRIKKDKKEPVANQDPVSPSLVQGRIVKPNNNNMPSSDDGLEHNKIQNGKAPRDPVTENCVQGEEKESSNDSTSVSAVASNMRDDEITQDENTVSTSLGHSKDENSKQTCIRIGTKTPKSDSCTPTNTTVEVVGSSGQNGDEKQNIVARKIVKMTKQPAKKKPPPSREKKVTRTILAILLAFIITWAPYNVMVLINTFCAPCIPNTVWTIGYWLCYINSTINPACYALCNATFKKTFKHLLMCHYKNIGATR
# T2 sequence (P25101 21-427): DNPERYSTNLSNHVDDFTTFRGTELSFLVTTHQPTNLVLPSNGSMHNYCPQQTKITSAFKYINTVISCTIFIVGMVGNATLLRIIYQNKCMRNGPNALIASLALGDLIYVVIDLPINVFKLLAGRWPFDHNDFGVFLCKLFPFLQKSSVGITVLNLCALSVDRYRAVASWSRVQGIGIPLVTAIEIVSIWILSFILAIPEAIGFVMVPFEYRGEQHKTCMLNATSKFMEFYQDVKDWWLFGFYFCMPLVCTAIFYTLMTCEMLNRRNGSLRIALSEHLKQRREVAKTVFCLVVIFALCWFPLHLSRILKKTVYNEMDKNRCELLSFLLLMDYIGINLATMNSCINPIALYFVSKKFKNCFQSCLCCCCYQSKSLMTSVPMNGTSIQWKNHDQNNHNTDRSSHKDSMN
# Chain of dopamine transporter (Q01959 whole entry): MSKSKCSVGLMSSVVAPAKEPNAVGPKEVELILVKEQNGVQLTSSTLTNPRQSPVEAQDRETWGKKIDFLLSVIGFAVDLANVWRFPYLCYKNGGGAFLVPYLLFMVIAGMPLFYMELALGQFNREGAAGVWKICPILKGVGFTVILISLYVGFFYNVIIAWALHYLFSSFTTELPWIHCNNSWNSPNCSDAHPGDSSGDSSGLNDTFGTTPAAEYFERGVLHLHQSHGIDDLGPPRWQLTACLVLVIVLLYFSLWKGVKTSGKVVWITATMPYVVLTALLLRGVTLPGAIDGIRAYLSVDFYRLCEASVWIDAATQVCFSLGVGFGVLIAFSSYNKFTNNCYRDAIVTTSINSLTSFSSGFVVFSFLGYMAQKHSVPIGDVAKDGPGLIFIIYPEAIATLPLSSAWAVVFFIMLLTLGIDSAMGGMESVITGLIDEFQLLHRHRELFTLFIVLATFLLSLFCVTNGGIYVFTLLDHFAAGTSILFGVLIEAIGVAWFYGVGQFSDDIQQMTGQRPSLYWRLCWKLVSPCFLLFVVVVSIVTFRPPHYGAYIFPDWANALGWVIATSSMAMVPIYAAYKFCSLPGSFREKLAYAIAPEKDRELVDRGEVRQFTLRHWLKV
# Chain of Dopamine Receptor D1 (DRD1) (P21728 whole entry): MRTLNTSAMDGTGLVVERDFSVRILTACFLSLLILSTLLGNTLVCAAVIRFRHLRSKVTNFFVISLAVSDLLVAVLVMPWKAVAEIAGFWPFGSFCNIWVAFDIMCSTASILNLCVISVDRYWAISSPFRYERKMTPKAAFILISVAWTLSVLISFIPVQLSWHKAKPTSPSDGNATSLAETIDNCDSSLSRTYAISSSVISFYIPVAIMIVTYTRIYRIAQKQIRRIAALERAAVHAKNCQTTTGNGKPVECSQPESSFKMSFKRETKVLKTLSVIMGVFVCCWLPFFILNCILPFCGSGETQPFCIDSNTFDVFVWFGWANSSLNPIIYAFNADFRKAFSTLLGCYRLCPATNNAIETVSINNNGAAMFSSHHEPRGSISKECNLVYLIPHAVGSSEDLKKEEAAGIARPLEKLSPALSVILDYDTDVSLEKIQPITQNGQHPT
# T7 sequence (Q08499 303-809 limits assumed): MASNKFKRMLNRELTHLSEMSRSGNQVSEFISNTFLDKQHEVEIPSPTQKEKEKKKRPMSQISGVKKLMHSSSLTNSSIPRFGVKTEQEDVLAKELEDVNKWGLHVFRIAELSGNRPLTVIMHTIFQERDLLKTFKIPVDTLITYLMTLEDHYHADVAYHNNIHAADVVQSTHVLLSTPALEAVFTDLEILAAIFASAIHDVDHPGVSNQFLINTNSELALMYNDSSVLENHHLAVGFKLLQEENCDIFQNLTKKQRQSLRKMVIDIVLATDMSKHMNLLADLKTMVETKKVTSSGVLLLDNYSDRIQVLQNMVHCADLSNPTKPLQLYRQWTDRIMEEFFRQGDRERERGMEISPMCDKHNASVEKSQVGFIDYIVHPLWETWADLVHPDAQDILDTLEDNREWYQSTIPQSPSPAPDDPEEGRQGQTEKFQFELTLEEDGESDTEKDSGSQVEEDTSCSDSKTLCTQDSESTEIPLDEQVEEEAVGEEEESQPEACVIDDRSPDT
# Chain of Muscarinic acetylcholine Receptor M3 (CHRM3) (P20309 whole entry): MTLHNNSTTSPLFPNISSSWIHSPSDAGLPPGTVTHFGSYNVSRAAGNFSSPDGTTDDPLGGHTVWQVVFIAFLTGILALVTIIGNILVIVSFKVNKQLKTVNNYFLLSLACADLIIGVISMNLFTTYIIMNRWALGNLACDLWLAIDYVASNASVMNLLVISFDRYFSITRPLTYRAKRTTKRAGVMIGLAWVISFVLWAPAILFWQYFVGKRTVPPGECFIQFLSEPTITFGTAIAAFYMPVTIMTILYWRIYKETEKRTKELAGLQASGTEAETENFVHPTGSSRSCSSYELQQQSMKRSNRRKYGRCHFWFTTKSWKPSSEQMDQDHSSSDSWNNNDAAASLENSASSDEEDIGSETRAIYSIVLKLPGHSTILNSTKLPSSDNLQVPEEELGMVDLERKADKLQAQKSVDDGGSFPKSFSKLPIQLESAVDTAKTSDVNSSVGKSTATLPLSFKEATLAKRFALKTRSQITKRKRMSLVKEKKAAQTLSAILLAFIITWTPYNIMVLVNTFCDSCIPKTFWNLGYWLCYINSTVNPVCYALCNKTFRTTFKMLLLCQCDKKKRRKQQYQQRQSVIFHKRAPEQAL
# T5 sequence (P28222 whole entry): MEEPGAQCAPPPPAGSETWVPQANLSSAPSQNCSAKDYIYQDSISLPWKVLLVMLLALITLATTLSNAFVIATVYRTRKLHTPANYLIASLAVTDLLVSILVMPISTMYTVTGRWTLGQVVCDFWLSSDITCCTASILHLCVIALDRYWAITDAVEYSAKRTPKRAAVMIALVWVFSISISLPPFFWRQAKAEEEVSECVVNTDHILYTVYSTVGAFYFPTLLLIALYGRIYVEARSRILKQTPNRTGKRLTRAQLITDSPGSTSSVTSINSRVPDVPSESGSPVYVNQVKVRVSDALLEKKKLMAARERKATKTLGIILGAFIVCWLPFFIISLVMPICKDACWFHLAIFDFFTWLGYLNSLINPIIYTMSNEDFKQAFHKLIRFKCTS
smiles,measurement,setting,value
"CN(C)CCc1ccn2ccccc12 [28-12 oxalate, 2-(indolizin-1-yl)-N, N-dimethylethan-1-amine oxalate]",EC50,[1],> 30 µM
same,EC50,[2],> 30 µM
same,EC50,[3],> 30 µM
same,EC50,[4],> 30 µM
same,IC50,[5],> 30 µM
same,IC50,[6],> 30 µM
same,IC50,[7],> 30 µM
same,IC50,dopamine transporter,> 30 µM
same,IC50,[8],> 30 µM
same,IC50,PDE4D2,> 30 µM
same,IC50,[9],> 30 µM
same,IC50,[10],> 30 µM
same,IC50,[11],> 30 µM
same,EC50,[12],> 30 µM
same,IC50,[13],2.31 µM
same,IC50,KvLQT1/minK,> 30 µM
same,EC50,[14],> 30 µM
same,IC50,AChE,> 30 µM
same,EC50,[15],> 30 µM
same,IC50,[16],> 30 µM
same,IC50,[17],9.27 µM
same,EC50,[18],> 30 µM
same,EC50,[19],> 30 µM
same,IC50,[20],> 30 µM
same,EC50,[21],> 30 µM
same,IC50,[22],> 30 µM
same,EC50,[23],> 30 µM
same,EC50,[24],> 30 µM
same,IC50,[25],> 30 µM
same,IC50,[26],> 30 µM
same,EC50,[27],> 30 µM
same,IC50,[28],> 30 µM
